Converted amounts (≈) assume the structure as drawn. The source made the active and inactive calls. No cut-off for these calls is given here.
System: not listed separately
Assay: Compound was tested for solubility in a model parenteral system consisting of 30% poltethylene glycol 200 (PEG-200)/water
Format: ADME
Conditions: read-out: S

solubility | Compound
1700 µg/mL | CN1CCN(C(=O)c2ccc3n2Cc2ccccc2N(C(=O)c2ccc(NC(=O)c4ccccc4-c4ccccc4)cc2Cl)C3)CC1.O=C(O)CC(O)(CC(=O)O)C(=O)O
300 µg/mL (≈ 479 µM) | COc1cc(NC(=O)c2ccccc2-c2ccccc2)ccc1C(=O)N1Cc2ccc(CN3CCN(C)CC3)n2Cc2ccccc21
2200 µg/mL (≈ 3850 µM) | COc1cc(C(=O)N2Cc3ccc(CN(C)C)n3Cc3ccccc32)ccc1NC(=O)c1ccccc1-c1ccccc1

System: Rattus norvegicus
Assay: Ratio of rat urine volume collected from treatment group (10 mg/kg perorally) after 4 hours versus control group was determined
Format: functional
Conditions: not given

Compound | Ratio
CN1CCN(C2CCN(C(=O)c3ccc4n3Cc3ccccc3N(C(=O)c3ccc(NC(=O)c5ccccc5-c5ccccc5)cc3Cl)C4)CC2)CC1.Cl | 2.7
Cc1ccc(F)cc1C(=O)Nc1ccc(C(=O)N2Cc3cccn3Cc3ccccc32)c(Cl)c1 [LIXIVAPTAN] | 7.4
COc1cc(NC(=O)c2ccccc2-c2ccccc2)ccc1C(=O)N1Cc2ccc(CN3CCN(C)CC3)n2Cc2ccccc21 | 7.8
O=C(Nc1ccc(C(=O)N2Cc3ccc(CN4CCC(N5CCCCC5)CC4)n3Cc3ccccc32)c(Cl)c1)c1ccccc1-c1ccccc1 | 1.5
CN(C)Cc1ccc2n1Cc1ccccc1N(C(=O)c1ccc(NC(=O)c3ccccc3-c3ccccc3)cc1Cl)C2 | 6.6
CN(C)Cc1ccc2n1Cc1ccccc1N(C(=O)c1ccc(NC(=O)c3ccccc3-c3ccccc3)cc1O)C2 | 3.8
COc1cc(C(=O)N2Cc3ccc(CN(C)C)n3Cc3ccccc32)ccc1NC(=O)c1ccccc1-c1ccccc1 | 5
CN1CCN(Cc2ccc3n2Cc2ccccc2N(C(=O)c2ccc(NC(=O)c4ccccc4-c4ccccc4)cc2Cl)C3)CC1 | 3.75
CN(C)C1CCN(Cc2ccc3n2Cc2ccccc2N(C(=O)c2ccc(NC(=O)c4ccccc4-c4ccccc4)cc2Cl)C3)CC1 | 2.3
CN(C)CCN(C)Cc1ccc2n1Cc1ccccc1N(C(=O)c1ccc(NC(=O)c3ccccc3-c3ccccc3)cc1Cl)C2 | 4.2

Target: Vasopressin V2 receptor (Homo sapiens, UniProt P30518)
Assay: Displacement of [3H]AVP from human vasopressin V2-receptor expressed in murine fibroblast cell (LV2) membranes
Format: cell-based
Conditions: not given

Chain of Vasopressin V2 receptor (P30518 whole entry): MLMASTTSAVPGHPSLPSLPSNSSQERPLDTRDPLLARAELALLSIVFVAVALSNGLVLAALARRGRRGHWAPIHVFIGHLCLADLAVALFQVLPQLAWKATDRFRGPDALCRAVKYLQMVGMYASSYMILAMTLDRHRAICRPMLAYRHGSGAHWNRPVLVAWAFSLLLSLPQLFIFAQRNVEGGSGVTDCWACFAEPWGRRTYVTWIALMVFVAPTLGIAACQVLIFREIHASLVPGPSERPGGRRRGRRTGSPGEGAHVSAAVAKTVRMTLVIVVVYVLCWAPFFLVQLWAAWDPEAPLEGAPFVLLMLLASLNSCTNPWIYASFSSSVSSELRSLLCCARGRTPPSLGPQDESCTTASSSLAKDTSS

Compound | IC50
CN(C)C1CCN(C(=O)c2ccc3n2Cc2ccccc2N(C(=O)c2ccc(NC(=O)c4ccccc4-c4ccccc4)cc2Cl)C3)CC1 | 8.8 nM
CN(C)Cc1ccc2n1Cc1ccccc1N(C(=O)c1ccc(NC(=O)c3ccccc3-c3ccccc3)cc1O)C2 | 14.8 nM
COc1cc(C(=O)N2Cc3ccc(CN(C)C)n3Cc3ccccc32)ccc1NC(=O)c1ccccc1-c1ccccc1 | 5.2 nM

Further lines, results first:

IC50 | Compound
7 nM | COc1cc(NC(=O)c2ccccc2-c2ccccc2)ccc1C(=O)N1Cc2ccc(CN3CCN(C)CC3)n2Cc2ccccc21
2.1 nM | O=C(Nc1ccc(C(=O)N2Cc3ccc(CN4CCC(N5CCCCC5)CC4)n3Cc3ccccc32)c(Cl)c1)c1ccccc1-c1ccccc1
7.5 nM | CN(C)Cc1ccc2n1Cc1ccccc1N(C(=O)c1ccc(NC(=O)c3ccccc3-c3ccccc3)cc1Cl)C2
1.3 nM | CN1CCN(Cc2ccc3n2Cc2ccccc2N(C(=O)c2ccc(NC(=O)c4ccccc4-c4ccccc4)cc2Cl)C3)CC1
2 nM | CN(C)C1CCN(Cc2ccc3n2Cc2ccccc2N(C(=O)c2ccc(NC(=O)c4ccccc4-c4ccccc4)cc2Cl)C3)CC1
2.6 nM | CN(C)CCN(C)Cc1ccc2n1Cc1ccccc1N(C(=O)c1ccc(NC(=O)c3ccccc3-c3ccccc3)cc1Cl)C2

System: Rattus norvegicus
Assay: Ratio of rat urine volume collected from treatment group (3 mg/kg perorally) after 4 hours versus control group was determined
Format: functional
Conditions: not given

Compound | Ratio
CN(C)Cc1ccc2n1Cc1ccccc1N(C(=O)c1ccc(NC(=O)c3ccccc3-c3ccccc3)cc1Cl)C2 | 5.6
Cc1ccc(F)cc1C(=O)Nc1ccc(C(=O)N2Cc3ccc(CN(C)C)n3Cc3ccccc32)c(Cl)c1 | 1.4

System: not listed separately
Assay: Compound was tested for solubility in a model parenteral system consisting of 30% poltethylene glycol 200 (PEG-200)/water (*, mixture of amophorus and crystalline material)
Format: ADME
Conditions: read-out: S

solubility | Compound
720 µg/mL (≈ 1250 µM) | CN(C)Cc1ccc2n1Cc1ccccc1N(C(=O)c1ccc(NC(=O)c3ccccc3-c3ccccc3)cc1Cl)C2
1900 µg/mL (≈ 3410 µM) | CN(C)Cc1ccc2n1Cc1ccccc1N(C(=O)c1ccc(NC(=O)c3ccccc3-c3ccccc3)cc1O)C2

System: Rattus norvegicus
Assay: Ratio of rat urine volume collected from treatment group (1 mg/kg perorally) after 4 hours versus control group was determined
Format: functional
Conditions: not given

Compound | Ratio
CN(C)Cc1ccc2n1Cc1ccccc1N(C(=O)c1ccc(NC(=O)c3ccccc3-c3ccccc3)cc1Cl)C2 | 2.3
Cc1ccc(F)cc1C(=O)Nc1ccc(C(=O)N2Cc3ccc(CN(C)C)n3Cc3ccccc32)c(Cl)c1 | 1.4

System: Rattus norvegicus
Assay: Ratio of urine volume collected from treatment group (10 mg/kg perorally) after 4 hours versus control group was determined; No effect
Format: functional, organism-based
Conditions: not given

Compound | Ratio
Cc1ccc(F)cc1C(=O)Nc1ccc(C(=O)N2Cc3ccc(C(=O)O)n3Cc3ccccc32)c(Cl)c1 | inactive
